Results from PubChem BioAssay (NCI).
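Compound exposure: 48 hours, 5 concentrations, 96-well plates. The concentration for 50% growth inhibition is given as GI50. TGI denotes the concentration required for complete inhibition of growth.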

Key:
Assay in all cases: NCI-60 cell line screen, 48 h
[1] = tested on: SF-539 CNS
[2] = tested on: CAKI-1 renal
[3] = tested on: SN12C renal
[4] = tested on: SK-MEL-2 melanoma
[5] = tested on: MOLT-4 leukemia
[6] = tested on: HT29 colon
[7] = tested on: MCF7 breast
[8] = tested on: BT-549 breast
[9] = tested on: HL-60(TB) leukemia
[10] = tested on: HCT-15 colon
[11] = tested on: SW-620 colon
[12] = tested on: TK-10 renal
[13] = tested on: MDA-MB-231 breast

| Structure (SMILES) | TGI [1] [µM] | TGI [2] [µM] | TGI [3] [µM] | TGI [4] [µM] | TGI [5] [µM] | TGI [6] [µM] | TGI [7] [µM] | TGI [8] [µM] | TGI [9] [µM] | TGI [10] [µM] | TGI [11] [µM] | TGI [12] [µM] | TGI [13] [µM] | GI50 [2] [µM] |
| --- | --- | --- | --- | --- | --- | --- | --- | --- | --- | --- | --- | --- | --- | --- |
| COC(=O)C1CCC(=O)N1C(c1ccc2c(c1)OCO2)c1ccc2c(c1)OCO2 (centres undefined) | > 100 | > 100 | > 100 | > 100 | > 100 | > 100 | > 100 | > 100 | > 100 | > 100 | > 100 | > 100 | > 100 | – |
| O=C(/C(=C/c1cccs1)c1ccccc1)c1ccccc1 | 87.6 | > 100 | > 100 | > 100 | > 100 | > 100 | > 100 | > 100 | > 100 | > 100 | > 100 | > 100 | > 100 | – |
| O=C(N/C(=C\c1ccccc1)C1Nc2ccccc2C(=O)O1)c1ccccc1 (centres undefined) | 43.7 | > 100 | 84.6 | 62 | 45.1 | > 100 | > 100 | 62.2 | 36.1 | > 100 | 59.6 | > 100 | > 100 | – |
| Cc1cccc(NC(=S)N/N=C(/c2ccccc2)c2ccccn2)c1 | 12.8 | 12.7 | 12.4 | 14.5 | > 6.59 | 17.4 | 0.663 | 17 | 1.53 | 16.5 | 20.4 | 16 | 6.73 | – |
| CN(C)/C=N/S(=O)(=O)c1nn2c(C=O)c(-c3ccc(-c4ccc([N+](=O)[O-])cc4)o3)nc2s1 | 11.8 | 4.06 | 4.57 | 25.9 | 14.3 | 2.19 | > 32.6 | 8.05 | 2.54 | 12.5 | > 23.5 | 15.1 | 20 | – |
| N/N=C(\C(=O)Nc1ccc([N+](=O)[O-])cc1)C(C1=Nc2cc([N+](=O)[O-])ccc2NC1)[N+](=O)[O-] (centres undefined) | > 100 | > 100 | > 100 | > 100 | > 100 | > 100 | > 100 | > 100 | > 100 | > 100 | > 100 | > 100 | > 100 | – |
| CCN(CC)c1nc(N(C)C)c2cc(OC)ccc2n1 | 55.5 | > 100 | 89.3 | > 100 | 65.1 | > 100 | > 100 | > 100 | 67 | > 100 | > 100 | > 100 | > 100 | – |
| CP(C)(=S)P(C)(C)=S | > 100 | > 100 | > 100 | > 100 | > 100 | > 100 | > 100 | > 100 | > 100 | > 100 | > 100 | > 100 | > 100 | – |
| CC[C@@]1(O)C(=O)OCc2c1cc1n(c2=O)Cc2c-1nc1ccccc1c2/C=N\NC(=O)C(C)N (some centres undefined) | < 0.0282 | 2.57 | 11.1 | > 100 | 2.08 | > 47.1 | > 66.9 | > 22.4 | > 100 | > 100 | > 100 | > 100 | > 100 | – |
| Cc1ccc(C)c(NC(=O)C(Cc2c[nH]c3ccccc23)NC(=O)OCc2ccccc2)c1 (centres undefined) | 21.5 | 56.7 | > 100 | 45.9 | 19.6 | 45.1 | > 100 | 44.8 | 15.4 | > 100 | 35.5 | 39.2 | 47.4 | – |
| CC(C)=CCC[C@H](C)[C@H]1CC[C@@H](C)c2cc(O)c(C)cc21 | 33.8 | 31.9 | 29.8 | 32.4 | 51 | 37.2 | 32.5 | 32.7 | 41.7 | 35.1 | 56.6 | 32.8 | 34 | – |
| C/C(=N\Nc1nc2ccccc2o1)c1ccncn1 | > 100 | 42.6 | > 100 | > 25.8 | > 100 | > 35.6 | > 43.8 | > 100 | 0.0585 | > 58.1 | > 39.3 | > 63.4 | 97.1 | – |
| O=C1OC(c2ccccc2)N/C1=C\c1ccc2c(c1)OCO2 (centres undefined) | > 31.6 | > 100 | > 100 | > 100 | > 100 | > 100 | > 100 | > 100 | 0.684 | > 100 | > 100 | > 100 | > 100 | – |
| CCCCCCCCCCCCP(=O)(O)OCC(N)C(=O)O (centres undefined) | 47.4 | > 100 | 42.4 | 91.9 | 61.7 | > 100 | > 100 | > 100 | 36.1 | 41.3 | > 100 | > 100 | 65.3 | – |
| CC1(C)O[C@@H]2[C@@H]3OC(=O)C[C@@H]3[C@@H](COCc3ccccc3)[C@@H]2O1 | > 100 | > 100 | > 100 | > 100 | > 100 | > 100 | > 100 | > 100 | > 100 | > 100 | > 100 | > 100 | > 100 | – |
| O=C(O)c1cc(Sc2ccc([N+](=O)[O-])c(C(=O)O)c2)ccc1[N+](=O)[O-] | > 100 | > 100 | > 100 | > 100 | > 100 | > 100 | > 100 | > 100 | > 100 | > 100 | > 100 | > 100 | > 100 | > 100 |
| COc1ccc(-c2nnc(CCCCCCCCc3nnc(-c4ccc(OC)cc4)o3)o2)cc1 | > 100 | > 100 | > 100 | > 100 | > 100 | > 100 | > 100 | 59 | > 100 | > 100 | > 100 | > 100 | > 100 | – |
| CCCCCC(/C=N/N)C(O)(C(F)(F)F)C(F)(F)F (centres undefined) | > 10 | 6.02 | > 10 | > 10 | > 10 | > 10 | > 10 | 9.27 | > 10 | 9.54 | > 10 | > 10 | > 10 | – |
| CCCCOC(=O)C1CN2C(=NC1(C(F)(F)F)C(F)(F)F)Sc1ccccc12 (centres undefined) | > 100 | > 100 | > 100 | > 100 | 84.6 | > 100 | > 100 | > 100 | 68.9 | > 100 | > 100 | > 100 | > 100 | – |
| COC(Cc1ccccc1)NC(C)=O (centres undefined) | > 100 | > 100 | > 100 | > 100 | > 100 | > 100 | > 100 | > 100 | > 100 | > 100 | > 100 | > 100 | > 100 | – |
| COC(=O)c1scc(N)c1-n1ccc(=O)[nH]c1=O | > 100 | > 100 | > 100 | > 100 | > 100 | > 100 | > 100 | > 100 | > 100 | > 100 | > 100 | > 100 | > 100 | – |
| N=c1oc2c(Cl)cc(Cl)cc2cc1C(=O)Nc1ccccn1 | > 100 | > 100 | > 100 | > 100 | > 100 | > 100 | > 100 | > 100 | > 100 | > 100 | > 100 | > 100 | > 100 | – |
| CC(=O)O[C@H]1[C@@H](N2CCN(C)CC2)C[C@H]2[C@@H]3CC=C4C[C@@H](N5CCCC5)CC[C@]4(C)[C@H]3CC[C@@]21C | 29.3 | > 100 | > 100 | > 100 | > 100 | > 100 | > 100 | > 100 | 30.1 | > 100 | > 100 | > 100 | > 100 | – |
| CCOC1SC(SC)=NN1C(=O)C(OC(C)=O)C(OC(C)=O)C(OC(C)=O)C(OC(C)=O)C(=O)N1N=C(SC)SC1OCC (centres undefined) | > 100 | > 100 | > 100 | > 100 | > 100 | > 100 | > 100 | > 100 | > 100 | > 100 | > 100 | > 100 | > 100 | – |
| Cc1c2cccc-2c(OCCO)cc2c1[nH]c1ccccc12 | 3.5 | 3.67 | 11.8 | 12 | 20.1 | 14.2 | 19.4 | 7.34 | > 19.9 | 22.9 | > 74.7 | 14.2 | 6.56 | – |
| CC1(C)C2CCC1(CC(=O)O)C(Cl)C2 (centres undefined) | > 100 | > 100 | > 100 | > 100 | > 100 | > 100 | > 100 | > 100 | > 100 | > 100 | > 100 | > 100 | > 100 | – |
